Laboratory results: patent US20020137209A1, “Methods of dissociating nongenotropic from genotropic activity of steroid receptors” (priority 2000, published 2002)

Experiments:
[1] = Bone remodeling in mice given doxycycline in drinking water; assay type: in vivo; settings: 0.5 mg/ml in drinking water; stated as established
Protocol: Tet-F6 and wild type animals are assessed for bone mass by in vivo DEXA analysis at weekly intervals following the turning on of the transgene or the overiectomy. At the end of the 4-6 week period, both groups of animals are sacrificed and the following determinations made: a) whole body and uterine and mammary gland weights, b) length of the long bones and the width between the periosteal and endosteal bone, c) osteoblastogenesis and osteoclastogenesis in ex vivo cultures of bone marrow cells, d) prevalence of osteoblast/osteocyte and osteoclast apoptosis in sections of vertebrae, e) rate of bone formation and resorption by dynamic histomorphometry and f) compression strength of the vertebrae. An intraperitoneal injection of 30ng/g body weight of oxytetracycline-hydrochloride is administered 8 days and 2 days before sacrificing the animals for the dynamic histomorphometry analysis. It is important to note that the TET ON system is 100-1000 fold less sensitive to tetracycline than it is to doxycycline. […] Therefore, this maneuver should not influence the expression of the transgene, which at this stage will have been turned on with doxycycline.

[2] = system: vertebral osteoblast and osteocyte apoptosis; assay: Osteoblast and osteocyte apoptosis in vertebrae of ovariectomized mice (TUNEL); assay type: in vivo; settings: data not shown
[3] = system: osteocytic cell line MLO-Y4; assay: Apoptosis of MLO-Y4 osteocytic cells (trypan blue); assay type: cell-based
[4] = system: ERK1/2; assay: ERK phosphorylation in MLO-Y4 cells (Western blot); assay type: cell-based; settings: MLO-Y4 cells
Protocol: Western blot analysis. The phosphorylation status of ERK1/2 was analyzed by immunoblotting using a mouse monoclonal antibody recognizing tyrosine phosphorylated ERK1/2, or a rabbit polyclonal antibody recognizing total ERK1/2, followed by incubation with either an anti-mouse or an anti-rabbit antibody conjugated with horseradish peroxidase (Santa Cruz Biotechnology).

[5] = system: embryonic fibroblasts derived from Src−/− mice; assay: Apoptosis in embryonic fibroblasts from Src−/− mice; assay type: cell-based; settings: ER- and AR-expressing, also lack yes and Fyn
Protocol: Cell lysates were obtained and proteins were analyzed by Western blot analysis using anti-ERK1/2 or anti-phospho-ERK1/2 (p-ERK1/2) antibodies. […] After 30 min, etoposide was added and apoptosis was assayed 6 hours later as in FIG. 1B. […] RT-PCR was performed as described in the experimental procedures. C-E. HeLa cells were transfected with Nuc-EGFP and with expression vectors encoding the full length ERα or its E domain, or the AR alone (C, left panel) or together with a dn MEK (C, right panel); a Src mutant lacking the kinase activity (Src K^−), a Src mutant lacking the SH2 domain (Src ΔSH2), or a Src mutant lacking the SH3 domain (Src ΔSH3) (D); or with ERα together with wt Shc, or the dn Shc mutants Y239F/Y240F/Y317F (Shc FFF), Y317F (Shc YYF) or Y239F/Y240F (Shc FFY) (E). Bars represent means±SD of triplicate determinations. *p<0.05 versus cells cultured without steroids, by ANOVA.
Quantification of apoptotic cells in vitro. Apoptotic cells were quantified either by trypan blue staining or by direct visualization of changes in nuclear morphology (in the case of transfected HeLa cells), as previously described (Plotkin,L. et al. (1999). J.
RT-PCR analysis of the ERs and AR in embryonic fibroblasts. […]

[6] = system: lactoferrin mRNA in the uterus; settings: WT mice, E2 20 ng/g body weight for 28 days; stated as known; cited from earlier work
[7] = system: calvaria-derived murine osteoblastic cells; assay: Apoptosis of calvaria-derived osteoblastic cells (trypan blue); settings: 10^−8 M steroid
[8] = biological target: ERβ (Homo sapiens, UniProt Q92731); assay: Etoposide-induced apoptosis in HeLa cells transfected with ERβ; settings: HeLa transfected with ERβ
[9] = system: HeLa cells transfected with the vector without receptor (empty vector, ev); assay: Etoposide-induced apoptosis in HeLa cells transfected with empty vector; settings: 10^−12M to 10^−8 M

Chain of ERβ (Q92731 whole entry, species assumed): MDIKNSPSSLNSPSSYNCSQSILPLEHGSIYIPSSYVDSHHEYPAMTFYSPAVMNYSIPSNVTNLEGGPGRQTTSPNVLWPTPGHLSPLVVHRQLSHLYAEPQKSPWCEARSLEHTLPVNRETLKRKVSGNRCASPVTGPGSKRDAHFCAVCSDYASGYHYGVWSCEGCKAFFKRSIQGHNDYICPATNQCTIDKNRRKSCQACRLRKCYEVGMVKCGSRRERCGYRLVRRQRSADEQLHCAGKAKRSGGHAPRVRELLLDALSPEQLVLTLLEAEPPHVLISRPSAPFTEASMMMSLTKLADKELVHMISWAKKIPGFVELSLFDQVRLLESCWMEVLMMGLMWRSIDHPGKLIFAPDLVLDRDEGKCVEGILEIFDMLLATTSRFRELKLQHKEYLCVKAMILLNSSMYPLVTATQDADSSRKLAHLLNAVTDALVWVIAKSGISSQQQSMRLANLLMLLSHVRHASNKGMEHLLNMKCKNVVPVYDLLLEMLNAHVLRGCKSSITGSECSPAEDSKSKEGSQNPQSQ

C[C@H]1c2cccc(O)c2C(=O)C2=C(O)[C@]3(O)C(=O)C(C(N)=O)=C(O)[C@@H](N(C)C)[C@@H]3[C@@H](O)[C@@H]21 [doxycycline]
effect on bone remodeling [1]: no effect on bone remodeling

C[C@]12CC[C@@H]3c4ccc(O)cc4CC[C@H]3[C@@H]1CC[C@@H]2O [E2, 17β-estradiol]
prevention of the ovariectomy-induced increase in osteoblast and osteocyte apoptosis [2]: prevented
prevention of apoptosis induced by etoposide, dexamethasone or TNFα ([3]; 10^−8 M steroid): prevented apoptosis
dose-dependent inhibition of etoposide-induced apoptosis compared with calvaria cells ([3]; not shown): identical results
time of maximal effect on phosphorylation of ERKs [4]: 5 min
anti-apoptotic effect in Src−/− fibroblasts (unlike Src+/+ wild type controls) [5]: unresponsive
increase of lactoferrin mRNA in the uterus [6]: approximately 5 fold
prevention of apoptosis induced by etoposide, dexamethasone or TNFα [7]: prevented apoptosis
prevention of etoposide-induced apoptosis [8]: prevented apoptosis in a dose-dependent manner
effect on etoposide-induced apoptosis [9]: Neither E2 nor DHT (10^−12M to 10^−8 M) had an effect
